Experiments:
[1] = tested on: HepG2 cells; assay: Intracellular H2S release with WSP-1 probe; type: cell-based, human; settings: for intracellular H2S release, WSP-1 fluorescence signal vs vehicle: HepG2, tested concentrations 100-300 μM, 60 min
Description: All cell culture reagents were purchased from S.I.A.L. S.r.l. (Rome, Italy). WSP-1 (Washington State Probe-1, 3′-methoxy-3-oxo-3H-spiro[isobenzofuran-1,9′-xanthen]-6′-yl 2-(pyridine-2-yl-disulfanyl benzoate), was obtained from Cayman Chemical (Cayman, Ann Arbor, MI, USA). HepG2, human hepatocellular carcinoma cells, was obtained from American Type Culture Collection (ATCC, Bethesda, MD, USA). Human hepatocellular carcinoma cells (HepG2) were cultured in Minimum Essential Eagle’s Medium. This medium was supplemented with 10% (v/v) Fetal Bovine Serum, 1% (v/v) Glutamine and 1% (v/v) Penicillin-Streptomycin, 1% non-essential amino acids. Cells were cultivated at 37 °C with 5% CO2 at saturated humidity.
These experiments were carried out as already described. HepG2 cells were cultured up to about 90% confluence, and 24 h before the experiment cells were seeded into a 96-well flat bottom black plate (50,000 cells per well). After 24 h, the medium was replaced and cells were incubated at 37 °C for 30 min with a 10 mM solution of the fluorescent WSP-1 probe, which is highly sensitive for H2S detection. After incubation, the supernatant was removed and replaced with different concentrations (100, 200, and 300 µM) of the tested compounds dissolved in HBSS buffer. […] ADT 100 µM was used as a slow H2S-donor reference compound. Data were analyzed by one-way ANOVA for repeated measures, followed by post hoc Bonferroni’s multiple comparison test. Results are expressed as mean ± SEM of 3 independent experiments in triplicate. Statistical significance was accepted at a level of p < 0.05.
Next, we assessed the intracellular H2S release of thioureas and thioamides in HepG2 cells. The compounds were tested at different concentrations (100–300 μM) to evaluate if the release was dose-dependent. We also assayed ADT-OH and TIA as reference H2S-donors, and 3a as a negative control. The results were normalized to the fluorescence signal obtained with 100 μM ADT-OH.

[2] = molecular target: T1, FPR2 (Homo sapiens, UniProt P25090); assay: FPR2 desensitization: inhibition of WKYMVM-induced Ca2+ mobilization in FPR2-HL60 cells; type: cell-based; set-up: expressed in transfected cells; host or cells: HL-60 cells; settings: 10 min preincubation, then 5 nM WKYMVM
T1 sequence (P25090 1-351): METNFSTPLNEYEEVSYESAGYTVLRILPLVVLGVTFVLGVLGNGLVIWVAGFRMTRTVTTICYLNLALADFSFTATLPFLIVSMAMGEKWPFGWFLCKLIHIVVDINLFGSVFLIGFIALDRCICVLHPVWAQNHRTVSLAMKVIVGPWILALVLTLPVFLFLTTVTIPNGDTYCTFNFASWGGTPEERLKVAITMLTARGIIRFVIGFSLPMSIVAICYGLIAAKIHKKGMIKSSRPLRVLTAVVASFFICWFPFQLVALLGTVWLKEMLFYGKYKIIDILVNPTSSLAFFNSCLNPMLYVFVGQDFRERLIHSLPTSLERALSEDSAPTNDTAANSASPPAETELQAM
Description: Finally, we assessed the ability of compounds to induce receptor desensitization at FPR2 by measuring the inhibition of Ca^2+ mobilization induced by subsequent treatment with a standard FPR2 agonist (IC50, Table 1) because FPR2 undergoes homologous desensitization after stimulation with agonists, resulting in functional antagonism (IC50, Table 1). […] We also evaluated the effects of the thiourea and thioamide derivatives on Ca^2+ mobilization in FPR1-HL60-transfected cells after stimulation with the FPR1 agonist (IC50, Table 1).

[3] = Cell-free MTT-based H2S release assay; type: physicochemical; settings: 24 h incubation in MEM with 10% DMSO
Description: Solutions at different concentrations of each compound in 100 µL of serum-free MEM/10% DMSO with 0.5 mg/mL 3-(4,5-dimethylthiazol-2yl)-2,5-diphenyltetrazolium bromide (MTT) were incubated for 5 h or 24 h in a humidified incubator at 37 °C in 5% CO2 atmosphere. The experimental design comprised blank wells containing only medium and MTT, and a H2S calibration curve obtained by incubating nine solutions at decreasing concentrations (100 µM to 0.01 µM) of NaHS in medium and MTT. At the end of incubation time, the supernatant was removed, the […] crystals were dissolved in 100 µL DMSO/EtOH (1:1 v/v), and absorbance values were read using a Victor 3 plate reader (PerkinElmer, Shelton, CT, USA) at 570 nm. H2S values are expressed as mean ± S.E.M. of the results of three independent experiments conducted in triplicate, and were plotted using GraphPad Prism 7.
To decipher such results and considering the redox properties of H2S, we questioned if H2S released by our compounds in the culture media could interfere with the conversion of MTT (3-[4,5-dimethylthiazol-2-yl]-2,5-diphenyl tetrazolium bromide) to formazan, which is usually related to cell viability. Thus, we ran cell-free experiments in which MTT was used as the substrate to capture the reductive action of H2S. We found, in agreement with Gerő et al., that some of our thioureas and thioamides reduced MTT to formazan after 24 h incubation in MEM with 10% DMSO.

[4] = molecular target: T1, FPR2; assay: cell-based
[5] = molecular target: T1, FPR2; assay: Ca2+ mobilization (agonist activity) in FPR2-HL60 cells; settings: for Ca2+ Mobilization HL60-FPR2 Efficacy: response to 5 nM WKYMVM = 100%

Row | Compound | intracellular H2S release, WSP-1 fluorescence signal vs vehicle [1] | Ca2+ Mobilization HL60-FPR2 IC50 (FPR2 desensitization) [2] | IC50 [2] [nM] | absorbance signal (MTT reduction to formazan) indicative of H2S release [3] | EC50 [4] [nM] | Ca2+ Mobilization HL60-FPR2 Efficacy [5] [%] | intracellular level of H2S vs reference H2S donor ADT ([1]; HepG2, at 200 and 300 μM, p < 0.001 vs. ADT) | levels of H2S release in HepG2 cells ([1]; summary of WSP-1 results) | fold less potent at FPR2 than the corresponding urea/amide ([5]; ratio of FPR2 EC50 vs 3b, 3c or 4b) [fold]
1 | N#Cc1ccc(C[C@H](NC(=O)Nc2ccc(Br)cc2)C(=S)N2CCc3ccccc32)cc1 [8b, (S)-1-(4-Bromophenyl)-3-[3-(4-cyanophenyl)-1-(indolin-1-yl)-1-thioxopropan-2-yl]urea] | not statistically significant | submicromolar concentration | 7 ± 3 | below the assay’s detection limit | 40 ± 20 | 150 | – | – | –
2 | N#Cc1ccc(C[C@H](NC(=O)Nc2ccc(F)cc2)C(=S)N2CCc3ccccc32)cc1 [7b, (S)-1-[3-(4-Cyanophenyl)-1-(indolin-1-yl)-1-thioxopropan-2-yl]-3-(4-fluorophenyl)urea] | significant fluorescence signal increase at all tested concentrations | submicromolar concentration | 60 ± 20 | robust absorbance signal | 600 ± 200 | 170 | more than the reference H2S donor ADT | very high levels of H2S release | 23

Reference: publication PMC12291851, “Hydrogen Sulfide (H2S)-Donating Formyl Peptide Receptor 2 (FPR2) Agonists: Design, Synthesis, and Biological Evaluation in Primary Mouse Microglia Culture” (Antioxidants, 2025)
